Target: Transcription factor Jun (Homo sapiens, UniProt P05412)
Experiment: Inhibition of transcription factor AP-1 binding to oligonucleotide containing TPA-responsive element in TPA-activated human HeLa cells after 1 hr by ELISA
Assay type: cell-based
Conditions: not given

Transcription factor Jun, sequence (P05412 whole entry): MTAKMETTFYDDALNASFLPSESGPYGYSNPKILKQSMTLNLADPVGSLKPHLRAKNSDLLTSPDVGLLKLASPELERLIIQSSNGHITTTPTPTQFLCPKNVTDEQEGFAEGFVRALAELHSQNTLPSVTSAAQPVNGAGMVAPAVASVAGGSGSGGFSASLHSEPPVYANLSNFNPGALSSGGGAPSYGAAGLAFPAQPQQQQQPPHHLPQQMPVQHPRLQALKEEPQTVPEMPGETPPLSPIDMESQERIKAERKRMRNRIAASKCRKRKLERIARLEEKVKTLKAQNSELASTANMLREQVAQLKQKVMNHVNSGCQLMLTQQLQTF

Compound | IC50
O=C(O)/C(=C\c1ccc(O)c(O)c1)C(c1ccc(O)c(O)c1)C(O)C(=O)O (stereo not drawn) | 11.9 µM
O=C(O[C@H](Cc1ccc(O)c(O)c1)C(=O)O)[C@H]1[C@H](C(=O)O[C@H](Cc2ccc(O)c(O)c2)C(=O)O)[C@H](c2ccc(O)c(O)c2)[C@H]1c1ccc(O)c(O)c1 | 1.3 µM
O=C(O[C@H](Cc1ccc(O)c(O)c1)C(=O)O)C1=Cc2ccc(O)c(O)c2C(C(=O)O[C@H](Cc2ccc(O)c(O)c2)C(=O)O)C1c1ccc(O)c(O)c1 (stereo partly drawn) | 1.6 µM
O=C(/C=C/c1ccc(O)c(O)c1)O[C@H](Cc1ccc(O)c(O)c1)C(=O)O [ROSMARINIC ACID] | 16.2 µM

Tested on: not listed separately
Experiment: Antiinflammatory activity in PMA-activated human U937 cells assessed as inhibition of LPS-induced TNF-alpha expression preincubated for 2 hrs followed by LPS challenge measured after 6 hrs by ELISA
Assay type: functional, cell-based
Conditions: U-937

Compound | IC50
C/C=C1\C(=O)C=C(C(C)C)C1=O | 23.7 µM
CC1=CC(=O)/C(=C\C(C)C)C1=O | 10.1 µM
CC(C)C=C1C(=O)C=CC1=O | 5.1 µM
CC1=CC(=O)C(C(C)C)=CC1=O [THYMOQUINONE] | 102 µM

From ChEMBL document CHEMBL3112402, “Chemical constituents of Plectranthus amboinicus and the synthetic analogs possessing anti-inflammatory activity” (Bioorg Med Chem, 2014)
